Test results reported in article PMC3947174 (Structure (London, England : 1993), 2013).
Ends that are not written are not given here. Ahx = NCCCCCC(=O)O

What was measured:
iCAL36 = assay: fluorescence polarization competition; details: cited from earlier work
N1P2 (NHERF1 PDZ2) = molecular target: T1, N1P2 (NHERF1 PDZ2) (Homo sapiens, UniProt O14745); assay: FP displacement binding to NHERF1 PDZ2
T1 sequence (O14745 154-234 limits assumed): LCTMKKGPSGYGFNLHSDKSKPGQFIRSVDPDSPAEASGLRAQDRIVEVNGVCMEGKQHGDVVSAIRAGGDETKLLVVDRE

N2P1 (NHERF2 PDZ1) = N2P1 (NHERF2 PDZ1) (Homo sapiens, UniProt Q15599); assay: FP displacement binding to NHERF2 PDZ1
N2P2 (NHERF2 PDZ2) = N2P2 (NHERF2 PDZ2) (Homo sapiens, UniProt Q15599); assay: FP displacement binding to NHERF2 PDZ2
N1P1 (NHERF1 PDZ1) = molecular target: T2, N1P1 (NHERF1 PDZ1) (Homo sapiens, UniProt O14745); assay: FP displacement binding to NHERF1 PDZ1
T2 sequence (O14745 14-94 limits assumed): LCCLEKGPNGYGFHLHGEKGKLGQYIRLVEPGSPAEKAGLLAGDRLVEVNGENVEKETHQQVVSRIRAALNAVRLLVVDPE

CALP (CAL PDZ domain) [1] = molecular target: T3, CALP (CAL PDZ domain) (Homo sapiens, UniProt Q9HD26); assay: FP competition; format: binding; details: reporter F*-iCAL36, PDZ ~[…] Kd, triplicate experiments
CALP (CAL PDZ domain) [2] = molecular target: T3, CALP (CAL PDZ domain); details: K*-designed hexamer; ref Roberts et al., 2012; cited from earlier work
iCAL36L = assay: fluorescence polarization competition; details: cited from earlier work
CFTR (Homo sapiens) = assay: fluorescence polarization competition; details: cited from earlier work
iCAL36Q-4 = molecular target: T4, iCAL36Q-4; assay: fluorescence polarization competition
T4 chain: ANSRWQTSII

iCAL36TRL = molecular target: T5, iCAL36TRL; assay: fluorescence polarization competition
T5 chain: ANSRWPTTRL

iCAL36QDTRL = molecular target: T6, iCAL36QDTRL; assay: fluorescence polarization competition
T6 chain: ANSRWQDTRL

iCAL36VQD-3 = molecular target: T7, iCAL36VQD-3; assay: fluorescence polarization competition
T7 chain: ANSRVQDSII

F*-CFTR6 = molecular target: T8, F*-CFTR6 (Homo sapiens); assay: fluorescence polarization
T8 chain: {Fluorescein-Ahx}-VQDTRL

Molecule: N2P1 PDZ1 (from UniProt Q15599)
- Ki (iCAL36): > 1000 µM

Molecule: ANSRVQDTRL [iCAL36VQDTRL]
- Ki (N1P2 (NHERF1 PDZ2)): 6.5 ± 2.3 µM
- Ki (N2P1 (NHERF2 PDZ1)): 3.8 ± 1.4 µM
- Ki (N2P2 (NHERF2 PDZ2)): 0.94 ± 0.42 µM
- Ki (N1P1 (NHERF1 PDZ1)): 2.5 ± 0.3 µM

Molecule: ANSRWPTTRL [iCAL36TRL]
- Ki (N2P1 (NHERF2 PDZ1)): 8.7 ± 3.1 µM
- Ki (N2P2 (NHERF2 PDZ2)): 16.5 ± 3.9 µM
- Ki (N1P1 (NHERF1 PDZ1)): 8 ± 1.4 µM

Molecule: CC(C)C[C@H](NC(=O)[C@H](CCCNC(=N)N)NC(=O)[C@@H](NC(=O)[C@@H](NC(=O)[C@H](CCC(N)=O)NC(=O)[C@@H](NC(=O)[C@H](CCC(=O)O)NC(=O)[C@H](CCC(=O)O)NC(=O)[C@H](CCC(=O)O)NC(=O)[C@@H](N)[C@@H](C)O)C(C)C)[C@@H](C)O)[C@@H](C)O)C(=O)O [CFTRT^-3]
- Ki (N1P2 (NHERF1 PDZ2)): 4.6 ± 1.6 µM
- Ki (N2P1 (NHERF2 PDZ1)): 1.3 ± 0.4 µM
- Ki (N2P2 (NHERF2 PDZ2)): 0.45 ± 0.25 µM
- Ki (CALP (CAL PDZ domain) [1]): 18 ± 5.5 µM
- Ki (N1P1 (NHERF1 PDZ1)): 0.76 ± 0.51 µM

Molecule: N2P2 PDZ2 (from UniProt Q15599)
- Ki (iCAL36): > 1000 µM

Molecule: WQVTRV [kCAL01]
- CALP affinity in words (CALP (CAL PDZ domain) [2]): highest affinity observed to date for a hexameric sequence

Molecule: N1P2 PDZ2 (from UniProt O14745)
- Ki (iCAL36L): > 1000 µM
- Ki (CFTR (Homo sapiens)): 1.8 µM
- Ki (iCAL36): > 1000 µM

Molecule: N1P1 PDZ1 (from UniProt O14745)
- Ki (iCAL36): > 1000 µM

Molecule: ANSRVQDSII [iCAL36VQD^-3]
- Ki (N1P2 (NHERF1 PDZ2)): > 1000 µM
- Ki (N2P1 (NHERF2 PDZ1)): > 1000 µM
- Ki (CALP (CAL PDZ domain) [1]): > 1000 µM
- Ki (N1P1 (NHERF1 PDZ1)): > 1000 µM

Molecule: ANSRWQDTRL [iCAL36QDTRL]
- Ki (N1P2 (NHERF1 PDZ2)): 6.7 ± 2.4 µM
- Ki (N2P1 (NHERF2 PDZ1)): 3.1 ± 1.4 µM
- Ki (N2P2 (NHERF2 PDZ2)): 1.1 ± 0.6 µM
- Ki (N1P1 (NHERF1 PDZ1)): 1.5 ± 0.2 µM

Molecule: CC[C@H](C)[C@H](NC(=O)[C@@H](NC(=O)[C@H](CO)NC(=O)[C@@H](NC(=O)[C@H](CCC(N)=O)NC(=O)[C@H](Cc1c[nH]c2ccccc12)NC(=O)[C@H](CCCNC(=N)N)NC(=O)[C@H](CO)NC(=O)[C@H](CC(N)=O)NC(=O)[C@H](C)N)[C@@H](C)O)[C@@H](C)CC)C(=O)O [iCAL36Q^-4]
- Ki (N1P2 (NHERF1 PDZ2)): > 1000 µM
- Ki (N2P1 (NHERF2 PDZ1)): 300 ± 100 µM
- Ki (N1P1 (NHERF1 PDZ1)): 280 ± 100 µM

B1: N2P1 PDZ1 (protein)
chain: RPRLCRLVRGEQGYGFHLHGEKGRRGQFIRRVEPGSPAEAAALRAGDRLVEVNGVNVEGETHHQVVQRIKAVEGQTRLLVVDQETD
- Ki (iCAL36Q-4): 300 µM
- Ki (iCAL36TRL): 8.7 µM
- Ki (iCAL36QDTRL): 3.1 µM
- Ki (iCAL36VQD-3): > 1000 µM

B2: N1P2 PDZ2 (protein)
chain: RPRLCTMKKGPSGYGFNLHSDKSKPGQFIRSVDPDSPAEASGLRAQDRIVEVNGVCMEGKQHGDVVSAIRAGGDETKLLVVDRETDE
- Ki (iCAL36Q-4): > 1000 µM
- Ki (iCAL36TRL): 110 µM
- Ki (iCAL36VQD-3): > 1000 µM

B3: N2P2 PDZ2 (protein)
chain: LRPRLCHLRKGPQGYGFNLHSDKSRPGQYIRSVDPGSPAARSGLRAQDRLIEVNGQNVEGLRHAEVVASIKAREDEARLLVVDPETD
- Ki (iCAL36Q-4): 450 µM
- Ki (iCAL36TRL): 16.5 µM
- Ki (iCAL36QDTRL): 1.1 µM

B4: N1P1 PDZ1 (protein)
chain: LPRLCCLEKGPNGYGFHLHGEKGKLGQYIRLVEPGSPAEKAGLLAGDRLVEVNGENVEKETHQQVVSRIRAALNAVRLLVVDPETDE
- Kd (F*-CFTR6): 0.37 µM
- Ki (iCAL36Q-4): 280 µM
- Ki (iCAL36TRL): 8 µM
- Ki (iCAL36VQD-3): > 1000 µM
